From patent publication US5578622A, “Isothiazole derivatives and their uses” (Asamura Patent Office, priority 1994, dated 1996)

Tests used:
Rhizoctonia solani = experiment: Test for controlling effect on sheath blight of rice; format: in vivo; settings: 120 h, 200 ppm spray, 24 hours after inoculation, rice 4-leaf stage, five days after inoculation, read-out: Controlling effect (control of disease), Sheath blight of rice
Method: 2-3 Test for controlling effect on sheath blight of rice (Rhizoctonia solani) Rice seedlings at the 4-leaf stage were inoculated with the mycelium of sheath blight of rice (Rhizoctonia solani). After 24 hours, a test medicine solution adjusted to 200 ppm was sprayed onto the seedlings. After air-drying, the seedlings were placed in a humid room for 24 hours where the temperature was kept at 28° C. and humidity was kept at 98%. Thereafter, the seedlings were transferred to a greenhouse, and five days after inoculation, the degree of infected area was examined. The control of disease was calculated by comparison with that in the untreated plot. The control of disease is shown as a controlling effect in the same manner as in Test Example 2-1.

[1] = system: Candida albicans IFO 1270; experiment: In vitro antimycotic activity on Candida albicans; format: cell-based; settings: IFO1270, 10 (ppm), SGB, 37° C., 48 hours, turbidity at 650 nm, read-out: Antimycotic activity (growth inhibitory rate), C.albicans
Method: 3-1 In vitro antimycotic activity on Candida albicans
Candida albicans IFO 1270 pre-cultured on a Sabouraud's glucose agar (SGA) plate medium at 37° C. […] was suspended in a sterilized physiological salt solution. The number of fungi in the resulting suspension was counted with a globulimeter, and adjusted so as to be 1×10^7 cell/ml with a sterilized physiological salt solution. This solution was used as an inoculum solution. Thereafter, 0.1 ml of this solution and 0.1 ml of a dimethyl sulfoxide (DMSO) solution of the test compound were added to 9.8 ml of Sabouraud's glucose broth (SGB), and shake-cultured at 37° C. for 48 hours. After culture, the medium turbidity was measured at 650 nm, and the growth-inhibitory rate of the fungus was calculated according to the following equation.
Growth inhibitory rate (%)=(1-W/Y)×100
Y: Medium turbidity of DMSO control group
W: Medium turbidity of test compound group
From this inhibitory rate, the antimycotic activity was shown by the symbols A to D. The test results of the test compounds are shown in Table 4.

[2] = system: Pseudoperonospora cubensis; experiment: Test for controlling effect on downy mildew of cucumber; format: in vivo; settings: 168 h, 200 ppm spray, one day before inoculation, cucumber 2-leaf stage, read-out: Controlling effect (control of disease), Downy mildew of cucumber
Method: 2-2 Test for controlling effect on downy mildew of cucumber (Pseudoperonospora cubensis) A test compound adjusted to 200 ppm was sprayed onto cucumber at the 2-leaf stage cultivated in pots. After one day, the cucumber was inoculated by spraying the zoospore suspension of Pseudoperonospora cubensis. After inoculation, the cucumber was placed in a 25° C.-humid room for 1 day and then in a greenhouse for 6 days. Thus, the cucumber was made to be infected with downy mildew. The control of disease of the test compound is calculated by comparing the degree of infection of each leaf with that in the untreated plot. The control of disease is shown as a controlling effect in the same manner as in Test Example 2-1.

[3] = system: Aspergillus fumigatus TIMM 0063; experiment: In vitro antimycotic activity on Aspergillus fumigatus; format: cell-based; settings: TIMM0063, 10 (ppm), Casitone agar, 37° C., 48 hours, read-out: Antimycotic activity (growth inhibitory rate), A.fumigatus
Method: 3-2 In vitro antimycotic activity on Aspergillus fumigatus.
To Aspergillus fumigatus TIMM 0063 precultured at 37° C. for 48 hours on a potato dextrose agar (PDA) slant medium was added a sterilized physiological salt solution containing 0.1%(W/V) Tween 80. After conidia were made free from the solution, the solution was filtered through a sterilized two-sheet gauze to remove the mycelium mass. The number of the conidia in the resulting suspension was counted with a globulimeter and adjusted so as to be 1×10^5 conidia/ml with a sterilized physiological salt solution containing 0.1%(W/V) Tween 80. This solution was used as an inoculum solution. Casitone agar plate medium containing the DMSO solution of the test compound in a rate of 1% (V/V) was inoculated with the inoculum solution at four places thereof with a microplanter, and cultured with the medium allowed to stand at 37° C. for 48 hours. After culture, the diameter of the mycelium disks cultivated at the four inoculated parts was measured, and its mean value was obtained. The growth inhibitory rate was calculated according to the following equation, and the antimycotic activity was shown in the same manner as in Test Example 3-1.
Growth inhibitory rate (%)=(1-W'/Y')×100
Y': Diameter of mycelium disk of DMSO control group
W': Diameter of mycelium disk of test compound group

[4] = system: Gibberella fujikuroi ("Bakanae" disease of rice); experiment: Test for rice seed-disinfecting effect; format: in vivo; settings: Fusarium fujikuroi, 504 h, seed immersion 25° C. 24 hours, three weeks after treatment, read-out: Controlling effect (control of disease), "Bakanae" disease of rice
Method: 2-1 Test for rice seed-disinfecting effect
Unhulled rice infected with Gibberella fujikuroi ("Bakanae" disease of rice) was immersed in a test compound adjusted to 1000 ppm at 25° C. for 24 hours. Water was lightly swished off the seed, which was then sowed and germinated for two days. Three weeks after treatment with the solution containing the compound, the rate of the infected seedlings was examined, and the control of disease was calculated by comparison with that of the untreated plot. The control of disease was shown as a controlling effect on the basis of the following standard.

[5] = system: Trichophyton mentagrophytes IFO 5810; experiment: In vitro antimicrobial activity on Trichophyton mentagrophytes; format: cell-based; design: key: A: Fungus is not observed at all with the naked eye.; B: Presence of fungus is slightly observed on shaking the test tube.; C: Fungus of about less than one-fourth that of the DMSO control group is observed with the naked eye.; Fungus of about less than half that of the DMSO control group is observed with the naked eye; settings: 10 (ppm); SGB, 27° C., 7 days
Method: 3-3 In vitro antimicrobial activity on Trichophyton mentagrophytes To Trichophyton mentagrophytes IFO 5810 precultured at 27° C. for 2 to 3 weeks on a Sabouraud's glucose agar (SGA) slant medium was added a sterilized physiological salt solution containing 0.1% (W/V) Tween 80. After conidia were made free from the solution, the solution was filtered through a sterilized two-sheet gauze to remove the mycelium mass. The number of the conidia in the resulting suspension was counted with a globulimeter and adjusted so as to be 1×10^6 conidia/ml with a sterilized physiological salt solution containing 0.1%(W/V) Tween 80. This solution was used as an inoculum solution. Thereafter, 0.1 ml of this solution and 0.1 ml of the dimethyl sulfoxide (DMSO) solution of the test compound were added to 9.8 ml of Sabouraud's glucose broth (SGB), and shake-cultured at 27° C. for 7 days.

Tyromyces palustris = experiment: Test for wood rotting-preventing effect (mycelium growth inhibition on malt extract agar); format: cell-based; settings: 28° C.±2° C., 2 to 10 days, read-out: Rotting preventing effect (mycelium growth-inhibitory rate), TYP
Method: (§1) The following fungi were cultured in agar media, respectively, and mycelial disks on the media were stamped out together with the agar using a cork borer of 4 mm in diameter. The resulting mycelial disks on agar were used as an inoculum. Each test compound of 50 ppm was added to a malt extract agar medium and added in parts to Petri dishes. The above prepared inoculum was put on the Petri dishes and cultured at 28° C.±2° C. Two to ten days after inoculation, the diameter of the mycelial disk of each fungus was measured, and the mycelium growth-inhibitory rate was obtained according to the following equation. [formula] The mycelium growth-inhibitory rate (%) is indicated by the following symbols as a fungicidal effect on each fungus, and the results are shown in Table 2. | TYP: Tyromyces palustris

Trichoderma viride = experiment: as above; format: cell-based; settings: 28° C.±2° C., 2 to 10 days, read-out: Rotting preventing effect (mycelium growth-inhibitory rate), TRV
Method: as §1, with “TRV: Trichoderma viride” for “TYP: Tyromyces palustris”

Rhizopus nigricans = experiment: as above; format: cell-based; settings: Rhizopus stolonifer, 28° C.±2° C., 2 to 10 days, read-out: Rotting preventing effect (mycelium growth-inhibitory rate), RHN
Method: as §1, with “RHN: Rhizopus nigricans” for “TYP: Tyromyces palustris”

Aspergillus niger = experiment: as above; format: cell-based; settings: 28° C.±2° C., 2 to 10 days, read-out: Rotting preventing effect (mycelium growth-inhibitory rate), ASN
Method: as §1, with “ASN: Aspergillus niger” for “TYP: Tyromyces palustris”

Row | Compound | pest or weed control at 200 ppm (Rhizoctonia solani) | inhibition of growth at 10 µg/mL [1] | pest or weed control at 200 ppm [2] | inhibition of growth at 10 µg/mL [3] | pest or weed control at 1000 ppm [4] | Antimycotic activity (degree of growth, naked eye), T.mentagrophytes [5] | inhibition at 50 ppm (Tyromyces palustris) | inhibition at 50 ppm (Trichoderma viride) | inhibition at 50 ppm (Rhizopus nigricans) | inhibition at 50 ppm (Aspergillus niger)
1 | N#Cc1c(OC(F)F)nsc1OCC#CI [Compound 50] | 95 to 100% | 100% | 95 to 100% | 100% | 95 to 100% | A | – | – | – | –
2 | CSc1snc(SCOCC#CI)c1C#N [Compound 128, 3-(3-iodo-2-propynyloxymethylthio)-4-cyano-5-methylthioisothiazole] | 60 to 79% | 100% | 95 to 100% | 100% | 80 to 94% | A | – | – | – | –
3 | C=CCOc1nsc(SCOCC#CI)c1C#N [Compound 57] | – | 100% | – | 100% | – | A | 95 to 100% | 95 to 100% | 95 to 100% | 95 to 100%
4 | CCOCCSc1snc(OCC#CI)c1C#N [Compound 16] | – | 100% | – | 100% | – | A | 95 to 100% | 95 to 100% | 80 to 94% | 80 to 94%
5 | CCOc1snc(OCC#CI)c1C#N [Compound 22] | – | 100% | – | 100% | – | A | 95 to 100% | 95 to 100% | 95 to 100% | 95 to 100%
6 | CN1CCN(c2snc(OCC#CI)c2C#N)CC1 [Compound 36] | – | 100% | – | 100% | – | A | 95 to 100% | 95 to 100% | 80 to 94% | 80 to 94%
7 | N#Cc1c(SC(F)F)nsc1SCOCC#CI [Compound 138] | – | 100% | – | 100% | – | A | 95 to 100% | 95 to 100% | 95 to 100% | 95 to 100%
8 | CC(C)Sc1snc(OCC#CI)c1C#N [Compound 4] | 80 to 94% | 100% | 95 to 100% | 100% | 95 to 100% | A | – | – | – | –
9 | COc1nsc(SC(C)OCC#CI)c1C#N (stereo not drawn) [Compound 125] | 95 to 100% | 100% | 95 to 100% | 100% | 95 to 100% | A | – | – | – | –
10 | CC(C#CI)OCOc1nsc(SC(F)F)c1C#N (stereo not drawn) [Compound 111] | – | 100% | – | 100% | – | A | 95 to 100% | 95 to 100% | 95 to 100% | 95 to 100%
11 | N#CCOc1nsc(SCOCC#CI)c1C#N [Compound 63] | 80 to 94% | 100% | 95 to 100% | 100% | 95 to 100% | A | – | – | – | –
12 | CC(C)COc1snc(OCC#CI)c1C#N [Compound 29] | – | 100% | – | 100% | – | A | – | – | – | –
